In US20230117328A1, “METHODS TO TREAT CANCER USING (R)-N-(3-FLUORO-4-((3-((1-HYDROXYPROPAN-2-YL)AMINO)-1H-PYRAZOLO[3,4-B]PYRIDIN-4-YL)OXY)PHENYL)-3-(4-FLUOROPHENYL)-1-ISOPROPYL-2,4-DIOXO-1,2,3,4-TETRAHYDROPYRIMIDINE-5-CARBOXAMIDE” (Array BioPharma Inc., priority 2020, published 2023):
Entries after “also recorded” stand apart in the source; their conditions may differ.

Legend:
[1] = Tolerability (body weight loss, deaths) in MC-38 tumor-bearing cohorts; format: in vivo; details: for Deaths (any cause) / Maximum % Body Weight Loss: MC-38 tumor-bearing mice
Description: As monotherapy, anti-PD-1 was administered twice weekly (BIW) for 2 consecutive weeks by intraperitoneal (IP) injection at 200 μg/mouse (Days 10, 13, 17, and 20).
Animals were monitored for tumor growth and body weight 2-3 times per week based on outgrowth kinetics. Tumor diameter was measured with digital calipers, and the tumor volume in mm^3 was calculated by the formula: Volume=((width)^2×length)/2. Animals were removed from study if found moribund or if tumor volume exceeded 1500 mm^3.
Any animals remaining with no palpable tumors were scored as cures.
Survival was defined as morbidity, mortality or tumor size exceeding 1500 mm^3.

[2] = Tolerability (body weight loss, deaths) in tumor-naive cohorts; format: in vivo; details: tumor-naive mice
Description: Anti-PD-1 was administered twice weekly (BIW) for 2 consecutive weeks by intraperitoneal (IP) injection at 200 μg/mouse. […] Concomitantly, a set of satellite cohorts comprising tumor-naïve mice was treated with the same schedules and doses as indicated above. […]

C57BL/6 mice = experiment: Ocular histopathology (retina) in mice at terminal (Day 38) and recovery (Day 66) necropsy; format: in vivo; details: for animals affected by swelling of rod and cone processes (incidence and grade): terminal necropsy
Description: Eyes were harvested for histopathology assessment from the tumor-naïve groups as the terminal necropsy cohort on Day 38, the last day the 28-day dosing period. Since not all terminal necropsy groups were dosed for the entirety of the 28-day dosing period, some groups effectively experienced a 1-3 week recovery period. Eyes were harvested for histopathology assessment from the tumor-bearing groups as the recovery necropsy cohort on Day 66, the last day of the 28-day recovery period. Since not all recovery necropsy groups were dosed for the entirety of the 28-day dosing period, some of these groups effectively experienced an extended recovery period beyond the 28-day recovery period of an additional 1-3 weeks. […] This finding was only visualized under epifluorescent illumination and was characterized by scattered individual processes that were increased in diameter up to five times the surrounding processes, with increased autofluorescence. […] It remained unclear whether these findings were adverse, as no degenerative changes were observed. If the material affected vision, it would be considered adverse; however, as this study was not designed to test for alterations in vision, adversity could not be determined.
Terminal necropsy from non-tumor-bearing cohorts occurred at 28 days from the start of dosing, and eyes from 4-5 animals in each group were harvested for histopathology assessment. Since not all terminal necropsy groups were dosed for the entirety of the 28-day dosing period, some groups effectively experienced a 1-3 week recovery period. Recovery sacrifice from tumor-bearing cohorts occurred at 28 days after the 28-day dosing period, and eyes from 5 animals in each group were harvested for histopathology assessment. Since not all recovery necropsy groups were dosed for the entirety of the 28-day dosing period, some groups effectively experienced an extended recovery period beyond the 28-day recovery period of 1-3 weeks. Briefly, animals were euthanized by CO2 inhalation and eyes were harvested with forceps and placed in 1.5 mL modified Davidson's Fixative (Electron Microscopy Science, Cat. No. 64133-50, lot no. 190621-08) for up to 24 hours at room temperature. Tissues were then transferred to 1.5 ml 10% neutral buffered formalin (Thermo Scientific, cat. no. 9400-5, lot no. 435456) at room temperature. Fixed tissues were submitted Vet Path Services, Inc. (Mason, Ohio) for histological processing and microscopic evaluation.
Provantis™ pathology software v 10.1.0.1 was utilized for data capture and table generation. Histopathology grades were assigned as grade 1 (minimal), grade 2 (mild), grade 3 (moderate), grade 4 (marked), or grade 5 (severe) based on an increasing extent of change, unless otherwise specified. H&E stained slides were evaluated with standard light microscopy and epifluorescence (450-490 nm excitation).

CYP3A4 = CYP3A4 (Homo sapiens, UniProt P08684); experiment: In vitro metabolism by CYP3A4; format: in vitro ADME
P-gp [3] = biological target: T1, P-gp (Homo sapiens, UniProt P08183); experiment: P-gp substrate assessment in vitro; format: in vitro ADME
BCRP = biological target: T2, BCRP (Homo sapiens, UniProt Q9UNQ0); experiment: BCRP substrate assessment in vitro; format: in vitro ADME
T2 sequence (Q9UNQ0 1-655): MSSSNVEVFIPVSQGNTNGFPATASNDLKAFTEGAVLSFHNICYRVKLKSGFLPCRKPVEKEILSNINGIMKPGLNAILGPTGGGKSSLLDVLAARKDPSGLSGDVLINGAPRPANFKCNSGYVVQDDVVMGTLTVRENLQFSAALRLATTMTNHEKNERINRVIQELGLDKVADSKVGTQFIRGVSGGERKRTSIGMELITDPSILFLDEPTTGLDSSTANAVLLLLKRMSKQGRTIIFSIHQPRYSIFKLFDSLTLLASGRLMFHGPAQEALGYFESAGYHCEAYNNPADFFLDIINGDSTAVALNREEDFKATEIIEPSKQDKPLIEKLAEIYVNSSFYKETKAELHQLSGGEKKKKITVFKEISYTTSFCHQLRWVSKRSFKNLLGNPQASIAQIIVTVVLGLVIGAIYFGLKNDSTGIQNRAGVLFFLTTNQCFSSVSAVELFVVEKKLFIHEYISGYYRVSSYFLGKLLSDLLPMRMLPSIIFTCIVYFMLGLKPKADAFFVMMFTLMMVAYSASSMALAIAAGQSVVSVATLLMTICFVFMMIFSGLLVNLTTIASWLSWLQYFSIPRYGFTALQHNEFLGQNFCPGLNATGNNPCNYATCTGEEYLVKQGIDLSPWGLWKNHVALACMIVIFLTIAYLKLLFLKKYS

P-gp [4] = biological target: T1, P-gp; experiment: P-gp inhibition; format: in vitro ADME
in vivo = details: female, rat
[5] = Compound 1 50 mg/kg PO BID Days 10-16 (7 days) in combination with anti-PD-1 200 μg IP BIW (Days 10, 13, 17, 20)
[6] = Compound 1 50 mg/kg PO BID Days 10-16 and Days 24-30 (interval schedule) in combination with anti-PD-1 200 μg IP BIW (Days 10, 13, 17, 20)
[7] = Compound 1 50 mg/kg PO BID Days 10-23 (14 days) in combination with anti-PD-1 200 μg IP BIW (Days 10, 13, 17, 20)
[8] = Compound 1 50 mg/kg PO BID Days 10-30 (21 days) in combination with anti-PD-1 200 μg IP BIW (Days 10, 13, 17, 20)
[9] = Compound 1 50 mg/kg PO BID Days 10-37 (28 days) in combination with anti-PD-1 200 μg IP BIW (Days 10, 13, 17, 20)
[10] = Compound 1 monotherapy, 50 mg/kg PO BID Days 10-37 (28 days)
[11] = Compound 1 50 mg/kg PO BID Days 10-16/24-30 in combination with anti-PD-1 200 μg IP BIW
[12] = Compound 1 50 mg/kg PO BID Days 10-16 in combination with anti-PD-1 200 μg IP BIW
[13] = Compound 1 50 mg/kg PO BID Days 10-23 in combination with anti-PD-1 200 μg IP BIW
[14] = Compound 1 50 mg/kg PO BID Days 10-30 in combination with anti-PD-1 200 μg IP BIW
[15] = Compound 1 50 mg/kg PO BID Days 10-37 in combination with anti-PD-1 200 μg IP BIW
[16] = Compound 1 monotherapy, 50 mg/kg PO BID Days 10-37

T1 sequence (P08183 whole entry): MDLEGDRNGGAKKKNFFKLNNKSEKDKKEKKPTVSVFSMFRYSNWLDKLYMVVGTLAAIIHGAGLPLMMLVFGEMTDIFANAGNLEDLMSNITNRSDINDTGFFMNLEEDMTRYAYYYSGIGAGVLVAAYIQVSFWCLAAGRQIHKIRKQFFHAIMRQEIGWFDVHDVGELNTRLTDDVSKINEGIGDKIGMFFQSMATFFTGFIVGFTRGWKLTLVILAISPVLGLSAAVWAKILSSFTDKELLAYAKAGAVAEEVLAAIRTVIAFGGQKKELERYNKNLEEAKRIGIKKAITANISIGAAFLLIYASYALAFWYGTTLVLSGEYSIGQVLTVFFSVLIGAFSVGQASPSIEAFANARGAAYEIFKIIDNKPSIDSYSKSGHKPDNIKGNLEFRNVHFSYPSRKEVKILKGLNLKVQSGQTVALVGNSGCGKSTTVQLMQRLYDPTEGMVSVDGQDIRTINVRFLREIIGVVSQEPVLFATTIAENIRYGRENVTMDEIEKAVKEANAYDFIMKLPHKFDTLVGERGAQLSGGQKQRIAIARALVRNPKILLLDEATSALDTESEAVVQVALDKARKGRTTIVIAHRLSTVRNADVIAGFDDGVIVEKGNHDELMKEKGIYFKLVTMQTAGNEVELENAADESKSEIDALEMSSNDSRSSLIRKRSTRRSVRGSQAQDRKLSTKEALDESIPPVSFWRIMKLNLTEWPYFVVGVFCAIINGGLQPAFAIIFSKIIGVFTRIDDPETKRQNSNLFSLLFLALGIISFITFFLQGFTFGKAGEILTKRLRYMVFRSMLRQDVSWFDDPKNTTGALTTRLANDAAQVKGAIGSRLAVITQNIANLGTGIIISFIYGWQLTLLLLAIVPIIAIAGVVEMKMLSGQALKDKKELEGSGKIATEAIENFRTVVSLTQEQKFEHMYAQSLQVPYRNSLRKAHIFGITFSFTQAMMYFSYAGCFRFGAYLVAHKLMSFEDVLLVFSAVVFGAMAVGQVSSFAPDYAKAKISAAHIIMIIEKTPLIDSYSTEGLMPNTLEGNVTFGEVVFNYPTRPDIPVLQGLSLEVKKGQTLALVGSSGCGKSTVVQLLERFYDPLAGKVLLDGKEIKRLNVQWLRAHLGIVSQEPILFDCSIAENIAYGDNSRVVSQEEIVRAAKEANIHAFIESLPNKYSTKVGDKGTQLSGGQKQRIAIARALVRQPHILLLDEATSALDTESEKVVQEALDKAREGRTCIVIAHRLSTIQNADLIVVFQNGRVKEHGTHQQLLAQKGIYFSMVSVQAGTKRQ
Chain of CYP3A4 (P08684 whole entry): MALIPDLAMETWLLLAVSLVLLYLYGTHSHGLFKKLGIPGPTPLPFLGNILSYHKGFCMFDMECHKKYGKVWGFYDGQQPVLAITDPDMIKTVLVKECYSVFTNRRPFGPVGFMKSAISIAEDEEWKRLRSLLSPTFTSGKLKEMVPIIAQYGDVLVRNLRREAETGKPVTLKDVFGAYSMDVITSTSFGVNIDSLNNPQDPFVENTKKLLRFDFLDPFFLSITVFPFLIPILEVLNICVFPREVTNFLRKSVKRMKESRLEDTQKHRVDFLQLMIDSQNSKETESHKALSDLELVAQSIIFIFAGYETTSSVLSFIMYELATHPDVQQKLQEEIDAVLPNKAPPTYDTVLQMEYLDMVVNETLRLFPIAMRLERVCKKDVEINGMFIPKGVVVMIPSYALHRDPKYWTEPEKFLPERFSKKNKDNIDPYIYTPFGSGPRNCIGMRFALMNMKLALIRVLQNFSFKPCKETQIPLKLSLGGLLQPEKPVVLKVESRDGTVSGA

Question: For `CC(C)n1cc(C(=O)Nc2ccc(Oc3ccnc4[nH]nc(N[C@H](C)CO)c34)c(F)c2)c(=O)n(-c2ccc(F)cc2)c1=O` [Compound 1, (R)—N-(3-fluoro-4-((3-((1-hydroxypropan-2-yl)amino)-1H-pyrazolo[3,4-b]pyridin-4-yl)oxy)phenyl)-3-(4-fluorophenyl)-1-isopropyl-2,4-dioxo-1,2,3,4-tetrahydropyrimidine-5-carboxamide], which “tolerability of doses and schedules” value ([1]; MC-38 study, Compound 1 50 mg/kg BID 7-28 days, monotherapy or with anti-PD-1 200 μg BIW, 50 mg/kg) is on record?
Answer: tolerated as monotherapy and in combination with anti-PD-1; also recorded: tolerated at these doses and schedules

Question: And the “Deaths (any cause)” value [1, 5]?
Answer: 0/8

Question: And the “Maximum % Body Weight Loss” value [1, 5]?
Answer: 0.00%

Question: What about the “Deaths (any cause)” value [1, 6] of the same compound?
Answer: 0/8

Question: And the “Maximum % Body Weight Loss” value [1, 6]?
Answer: 0.23%

Question: What about the “Deaths (any cause)” value [1, 7] of the same compound?
Answer: 0/8

Question: What about the “Maximum % Body Weight Loss” value [1, 7] of the same compound?
Answer: 0.00%

Question: And the “Deaths (any cause)” value [1, 8]?
Answer: 0/8

Question: What about the “Maximum % Body Weight Loss” value [1, 8] of the same compound?
Answer: 2.98%

Question: And the “Deaths (any cause)” value [1, 9]?
Answer: 1/8

Question: What about the “Maximum % Body Weight Loss” value [1, 9] of the same compound?
Answer: 0.00%

Question: And the “Deaths (any cause)” value [1, 10]?
Answer: 2/8

Question: What about the “Maximum % Body Weight Loss” value [1, 10] of the same compound?
Answer: 5.17%

Question: And the “Deaths (any cause)” value [2, 11]?
Answer: 0/5

Question: And the “Maximum % Body Weight Loss” value [2, 11]?
Answer: 0.00%

Question: What about the “Deaths (any cause)” value [2, 12] of the same compound?
Answer: 0/5

Question: What about the “Maximum % Body Weight Loss” value [2, 12] of the same compound?
Answer: 0.00%

Question: What about the “Deaths (any cause)” value [2, 13] of the same compound?
Answer: 1/5

Question: What about the “Maximum % Body Weight Loss” value [2, 13] of the same compound?
Answer: 0.00%

Question: And the “Deaths (any cause)” value [2, 14]?
Answer: 1/5

Question: What about the “Maximum % Body Weight Loss” value [2, 14] of the same compound?
Answer: 0.00%

Question: What about the “Deaths (any cause)” value [2, 15] of the same compound?
Answer: 0/5

Question: What about the “Maximum % Body Weight Loss” value [2, 15] of the same compound?
Answer: 0.00%

Question: And the “Deaths (any cause)” value [2, 16]?
Answer: 0/5

Question: What about the “Maximum % Body Weight Loss” value [2, 16] of the same compound?
Answer: 0.00%

Question: And the “abnormal ocular observation at recovery sacrifice (unlikely to be related to the test article)” value (C57BL/6 mice; Day 66, Compound 1 for four weeks in combination with anti-PD-1)?
Answer: unilateral focal atrophy of the outer nuclear layer in Animal 4

Question: And the “recovery period within which Compound 1-related microscopic retinal changes may be resolved” value (C57BL/6 mice; mice, histopathology assessment of the retinas)?
Answer: 1-4 week

Question: And the “animals affected by swelling of rod and cone processes (incidence and grade)” value (C57BL/6 mice; Compound 1 for four weeks as monotherapy)?
Answer: three animals were minimally affected and two animals were mildly affected

Question: What about the “animals affected by swelling of rod and cone processes (incidence and grade)” value (C57BL/6 mice; Compound 1 for four weeks in combination with anti-PD-1) of the same compound?
Answer: four of five animals were minimally affected

Question: And the “test article-related ocular changes at recovery sacrifice” value (C57BL/6 mice; tumor-bearing mice, Day 66, 28 days after the 28-day dosing period)?
Answer: no definitively Compound 1-related changes were observed; also recorded: no definitively test article-related changes were observed

Question: And the “test article-related microscopic changes in retina at terminal necropsy” value (C57BL/6 mice; tumor-naive mice, Day 38, Compound 1 50 mg/kg BID for 28 days (four weeks), as monotherapy or in combination with anti-PD-1, seen only under epifluorescent illumination, 50 mg/kg)?
Answer: multifocal swelling of the rod and cone processes in the retina; also recorded: multifocal swelling of the Rod and Cone processes in retina

Question: What about the “metabolizing enzyme in vitro” value (CYP3A4) of the same compound?
Answer: primarily metabolized by CYP3A4 and CYP2D6

Question: What about the P-gp substrate status (P-gp [3]) of the same compound?
Answer: substrate of P-gp and BCRP

Question: What about the BCRP substrate status (BCRP) of the same compound?
Answer: substrate of P-gp and BCRP

Question: And the P-gp inhibitor status (P-gp [4])?
Answer: inhibitor of P-gp

Question: What about the NOAEL at 7 days (in vivo) of the same compound?
Answer: 200 mg/kg
